In publication PMC3731163 (MedChemComm, 2013):
Read-outs that look alike come from different tables or passages of the source.

Key:
[1] = system: H37Rv Mtb; test: Whole cell antitubercular activity; assay type: cell-based, Mycobacterium tuberculosis
[2] = system: H37Rv Mtb; conditions: cited from earlier work
[3] = molecular target: T1, Mtb Dxr (Mycobacterium tuberculosis, UniProt P9WNS1); conditions: see also Supplementary Figure 1; cited from earlier work
[4] = molecular target: T1, Mtb Dxr; test: Classical competition experiments; assay type: biochemical; conditions: double reciprocal plots

T1 sequence (P9WNS1 whole entry): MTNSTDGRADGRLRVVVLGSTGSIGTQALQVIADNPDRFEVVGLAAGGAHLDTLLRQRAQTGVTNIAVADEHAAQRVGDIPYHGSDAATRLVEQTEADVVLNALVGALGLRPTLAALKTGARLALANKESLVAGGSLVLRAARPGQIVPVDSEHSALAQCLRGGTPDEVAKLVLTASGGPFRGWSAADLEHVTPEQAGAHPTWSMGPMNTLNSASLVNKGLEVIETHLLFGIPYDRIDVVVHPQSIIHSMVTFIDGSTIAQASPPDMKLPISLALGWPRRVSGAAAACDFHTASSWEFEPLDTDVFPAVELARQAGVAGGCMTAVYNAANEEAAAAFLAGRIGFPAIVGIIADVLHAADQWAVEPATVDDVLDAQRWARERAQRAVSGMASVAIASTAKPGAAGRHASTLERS

In the case of `O=CN(O)CCCP(=O)(O)O` [Compound 1, Fosmidomycin], the “inhibition of Mtb growth (in words)” value [1] is listed as “do not inhibit Mtb”, the “activity against Mtb (in words)” value [2] is listed as “inactive” and the “mode of inhibition with respect to DXP” value [3] is listed as “competitive”.

With `CCOP(=O)(CCCN(O)C=O)OCC` [Diethyl-1] the “inhibition of Mtb growth (in words)” value [1] was “display measurable antitubercular activity”.

For `O=C(CCCc1ccccc1)N(O)CCCP(=O)([O-])O.[Na+]` [Compound 8], the “inhibition of Mtb growth (in words)” value [1] was “do not inhibit Mtb”, the “mode of inhibition with respect to DXP” value [4] was “competitive” and the “mode of inhibition with respect to NADPH” value [4] was “noncompetitive”.

In the case of `CC(=O)N(O)CCCP(=O)([O-])O.[Na+]` [Compound 2, FR900098], the “inhibition of Mtb growth (in words)” value [1] is listed as “do not inhibit Mtb”, the “mode of inhibition relative to NADPH” value [3] is listed as “uncompetitive” and the “mode of inhibition with respect to DXP” value [3] is listed as “competitive”.

With `CCOP(=O)(CCCN(O)C(=O)CCCc1ccccc1)OCC` [18b] the “inhibition of Mtb growth (in words)” value [1] was “display measurable antitubercular activity” and the “inhibition of Mtb growth (in words)” value ([1]; listed as diethyl ester of 8) was “inhibits Mtb growth”.
